This note sets out measurements from BindingDB's records for doi:10.1016/j.bioorg.2016.02.009 (Tianjin University of Science and Technology, 2016).

For the experiment, the target named is Isoform 2 of Hepatocyte growth factor receptor (2) (Homo sapiens, UniProt P08581). Description: c-Met Z-LYTE Assay. The conditions noted are these: pH 7; 25 °C. The method, then:
The c-Met kinase activity of five target compounds and three positive compounds were evaluated using standard Z-LYTE Assays (fluorescence resonance energy transfer, FRET). The test compounds or reference controls were dissolved indimethyl sulfoxide (DMSO) as stock solution. […] 5 µL of the detectionreagents A (Invitrogen) was added at final concentrations of 64-fold dilution. The plates were incubated at room temperature for 60 min and then read in the Envision plate reader (PerkinElmer).

One may read the IC50 as the concentration needed to halve the response being measured.

SMILES strings stand for the structures.

Chain of Isoform 2 of Hepatocyte growth factor receptor (2) (P08581 as listed by the source): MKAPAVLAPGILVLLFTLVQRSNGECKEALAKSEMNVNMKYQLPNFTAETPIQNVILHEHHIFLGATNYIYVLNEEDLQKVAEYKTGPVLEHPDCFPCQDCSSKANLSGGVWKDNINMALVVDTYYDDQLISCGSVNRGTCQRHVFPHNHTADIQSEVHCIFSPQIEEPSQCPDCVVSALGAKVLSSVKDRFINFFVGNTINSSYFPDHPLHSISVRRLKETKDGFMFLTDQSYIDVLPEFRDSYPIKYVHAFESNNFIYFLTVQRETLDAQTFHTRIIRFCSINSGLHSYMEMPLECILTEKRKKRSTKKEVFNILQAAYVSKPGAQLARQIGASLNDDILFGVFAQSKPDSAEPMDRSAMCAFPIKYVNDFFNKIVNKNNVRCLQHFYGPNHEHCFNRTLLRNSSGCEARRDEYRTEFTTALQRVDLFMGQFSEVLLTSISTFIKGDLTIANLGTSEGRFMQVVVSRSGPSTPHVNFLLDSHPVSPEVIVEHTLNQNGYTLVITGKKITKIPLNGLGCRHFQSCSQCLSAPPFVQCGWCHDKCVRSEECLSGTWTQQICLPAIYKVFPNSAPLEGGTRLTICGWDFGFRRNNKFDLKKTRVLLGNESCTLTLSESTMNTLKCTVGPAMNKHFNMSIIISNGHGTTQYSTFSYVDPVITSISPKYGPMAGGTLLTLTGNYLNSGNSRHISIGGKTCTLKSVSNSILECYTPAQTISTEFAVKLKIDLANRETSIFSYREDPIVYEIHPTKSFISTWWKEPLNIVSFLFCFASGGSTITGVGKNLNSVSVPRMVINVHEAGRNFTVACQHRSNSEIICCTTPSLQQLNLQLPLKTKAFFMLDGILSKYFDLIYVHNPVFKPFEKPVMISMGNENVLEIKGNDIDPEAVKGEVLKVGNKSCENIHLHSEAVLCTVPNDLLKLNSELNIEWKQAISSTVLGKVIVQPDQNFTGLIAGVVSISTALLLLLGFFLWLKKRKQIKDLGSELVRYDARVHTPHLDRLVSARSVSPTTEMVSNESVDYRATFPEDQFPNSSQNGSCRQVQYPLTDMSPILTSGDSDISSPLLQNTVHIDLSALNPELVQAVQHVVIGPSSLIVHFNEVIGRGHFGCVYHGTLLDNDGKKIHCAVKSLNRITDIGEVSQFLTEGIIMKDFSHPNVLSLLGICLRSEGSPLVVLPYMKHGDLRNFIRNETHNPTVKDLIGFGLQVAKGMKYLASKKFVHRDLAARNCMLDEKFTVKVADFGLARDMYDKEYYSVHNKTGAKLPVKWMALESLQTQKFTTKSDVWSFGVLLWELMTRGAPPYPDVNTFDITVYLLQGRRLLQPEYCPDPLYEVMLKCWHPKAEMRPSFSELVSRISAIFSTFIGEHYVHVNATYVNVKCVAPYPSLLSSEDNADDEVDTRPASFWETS

`Fc1ccc(Cl)c(C2(c3n[nH]c4ncc(-c5cnn(C6CCNCC6)c5)cc34)CC2)c1Cl` [3-(1-(2,6-dichloro-3-fluorophenyl)cyclopropyl)-5-(1-(piperidin-4-yl)-1H-pyrazol-4-yl)-1H-pyrazolo[3,4-b]pyridine (10)] had an IC50 of 47.4 nM. As to `Cc1[nH]c2ncc(-c3cnn(C4CCNCC4)c3)cc2c1C(C)c1c(Cl)ccc(F)c1Cl` (centres undefined) [3-(1-(2,6-dichloro-3-fluorophenyl)ethyl)-2-methyl-5-(1-(piperidin-4-yl)-1H-pyrazol-4-yl)-1H-pyrrolo[2,3-b]pyridine (6)], the concentration for half-maximal inhibition (IC50) worked out at 286 nM. On to `O=C(NCc1ccc(F)cc1)Nc1ccc(Oc2ccnc3[nH]ccc23)c(F)c1` [3-(3-fluoro-4-{1H-pyrrolo[2,3-b]pyridin-4-yloxy}phenyl)-1-[(4-fluorophenyl)methyl]urea (2)], for which the IC50 was 11 nM. The result for `CC(c1c(Cl)ccc(F)c1Cl)c1c(Cl)[nH]c2ncc(-c3cnn(C4CCNCC4)c3)cc12` (centres undefined) [4-(4-{2-chloro-3-[1-(2,6-dichloro-3-fluorophenyl)ethyl]-1H-pyrrolo[2,3-b]pyridin-5-yl}-1H-pyrazol-1-yl)piperidine (7)] reads 982 nM.

For `c1ccc(-c2cnc3nnc(C4(c5ccc6ncccc6c5)CC4)n3n2)cc1` [6-(1-{6-phenyl-[1,2,4]triazolo[4,3-b][1,2,4]triazin-3-yl}cyclopropyl)quinoline (5)], 13 nM corresponded to half-maximal inhibition (IC50). Consider `Fc1ccc(Cl)c(Sc2n[nH]c3ncc(-c4cnn(C5CCNCC5)c4)cc23)c1Cl` [3-((2,6-dichloro-3-fluorophenyl)thio)-5-(1-(piperidin-4-yl)-1H-pyrazol-4-yl)-1H-pyrazolo[3,4-b]pyridine (9)], for which inhibition was half-maximal at 22.8 nM (IC50). As for `CC(c1c(Cl)ccc(F)c1Cl)c1c[nH]c2ncc(-c3cnn(C4CCNCC4)c3)cc12` (centres undefined) [4-(4-{3-[1-(2,6-dichloro-3-fluorophenyl)ethyl]-1H-pyrrolo[2,3-b]pyridin-5-yl}-1H-pyrazol-1-yl)piperidine (1)], the IC50 is < 100 nM. Turning to `CC(Sc1cc(-c2cnn(C3CCNCC3)c2)cnc1N)c1c(Cl)ccc(F)c1Cl` (centres undefined) [3-{[1-(2,6-dichloro-3-fluorophenyl)ethyl]sulfanyl}-5-[1-(piperidin-4-yl)-1H-pyrazol-4-yl]pyridin-2-amine (11b)], 51.2 nM corresponded to half-maximal inhibition (IC50).

Molecule `O=C(NCc1ccc(F)cc1)Nc1ccc(Oc2ccnc3[nH]c(-c4cccnc4)cc23)c(F)c1` [3-(3-fluoro-4-{[2-(pyridin-3-yl)-1H-pyrrolo[2,3-b]pyridin-4-yl]oxy}phenyl)-1-[(4-fluorophenyl)methyl]urea (2a)] showed an IC50 of 2 nM. Compared with the last molecule, the IC50 is about 26-fold lower.
